Values joined by “and” are separate entries in the source; they are usually repeats but may differ in a detail not shown here. Equal entries are not always repeated.
Key:
AtMRP1 = target: T1, AtMRP1 (Arabidopsis thaliana, UniProt Q9C8G9); assay: AtMRP1-dependent uptake by membrane vesicles from pYES3-AtMRP1-transformed DTY168 cells; assay type: biochemical
T1 construct: S. cerevisiae DTY168 (ycf1 null) vacuolar-enriched membrane vesicles
Description: S. cerevisiae strain DTY168 (MATα his6, leu2-3, -112, ura3-52 ycf1::hisG) was transformed with pYES3-AtMRP1 or empty vector lacking the AtMRP1 insert (pYES3) by the LiOAc/PEG method (Giest et al., 1991, Yeast 7:253-263) and selected for uracil prototrophy by plating on AHC medium containing tryptophan (Kim et al., 1994, supra).
For the preparation of membrane vesicles, 15 ml volumes of stationary phase cultures of the transformants were diluted into 1 L of fresh AHC medium and grown to an OD600 nm of about 1.2. Membrane vesicles were purified as described herein and in Kim et al. (1995, supra).
[…] μl reaction volumes containing 3 mM ATP, 3 mM MgSO4, 5 μM gramicidin-D, 10 mM creatine phosphate, 16 units/ml creatine kinase, 50 mM KCl, 1 mg/ml BSA, 400 mM sorbitol, 25 mM Tris-Mes ([…]).
(§1) Cells were grown and vacuolar membrane-enriched vesicles were prepared as described (Kim et al., 1995, J Biol. Chem. 270:2630-2635-). […] Uptake was terminated by the addition of 1 ml ice-cold wash medium (400 mM sorbitol/3 mM Tris-Mes, pH 8.0) and vacuum filtration of the suspension through prewetted Millipore HA cellulose nitrate filters (pore size 0.45 μm). The filters were rinsed twice with wash medium, and the retained radioactivity was determined by liquid scintillation counting. Nonenergized uptake was estimated by the same procedure except that ATP was omitted from the uptake medium.

AtMRP2 = target: T2, AtMRP2 (Arabidopsis thaliana, UniProt Q42093); assay: AtMRP2-dependent uptake by membrane vesicles from pYES3-AtMRP2-transformed DTY168 cells; assay type: biochemical
T2 construct: S. cerevisiae DTY168 (ycf1 null) vacuolar-enriched membrane vesicles
T2 sequence (Q42093 whole entry): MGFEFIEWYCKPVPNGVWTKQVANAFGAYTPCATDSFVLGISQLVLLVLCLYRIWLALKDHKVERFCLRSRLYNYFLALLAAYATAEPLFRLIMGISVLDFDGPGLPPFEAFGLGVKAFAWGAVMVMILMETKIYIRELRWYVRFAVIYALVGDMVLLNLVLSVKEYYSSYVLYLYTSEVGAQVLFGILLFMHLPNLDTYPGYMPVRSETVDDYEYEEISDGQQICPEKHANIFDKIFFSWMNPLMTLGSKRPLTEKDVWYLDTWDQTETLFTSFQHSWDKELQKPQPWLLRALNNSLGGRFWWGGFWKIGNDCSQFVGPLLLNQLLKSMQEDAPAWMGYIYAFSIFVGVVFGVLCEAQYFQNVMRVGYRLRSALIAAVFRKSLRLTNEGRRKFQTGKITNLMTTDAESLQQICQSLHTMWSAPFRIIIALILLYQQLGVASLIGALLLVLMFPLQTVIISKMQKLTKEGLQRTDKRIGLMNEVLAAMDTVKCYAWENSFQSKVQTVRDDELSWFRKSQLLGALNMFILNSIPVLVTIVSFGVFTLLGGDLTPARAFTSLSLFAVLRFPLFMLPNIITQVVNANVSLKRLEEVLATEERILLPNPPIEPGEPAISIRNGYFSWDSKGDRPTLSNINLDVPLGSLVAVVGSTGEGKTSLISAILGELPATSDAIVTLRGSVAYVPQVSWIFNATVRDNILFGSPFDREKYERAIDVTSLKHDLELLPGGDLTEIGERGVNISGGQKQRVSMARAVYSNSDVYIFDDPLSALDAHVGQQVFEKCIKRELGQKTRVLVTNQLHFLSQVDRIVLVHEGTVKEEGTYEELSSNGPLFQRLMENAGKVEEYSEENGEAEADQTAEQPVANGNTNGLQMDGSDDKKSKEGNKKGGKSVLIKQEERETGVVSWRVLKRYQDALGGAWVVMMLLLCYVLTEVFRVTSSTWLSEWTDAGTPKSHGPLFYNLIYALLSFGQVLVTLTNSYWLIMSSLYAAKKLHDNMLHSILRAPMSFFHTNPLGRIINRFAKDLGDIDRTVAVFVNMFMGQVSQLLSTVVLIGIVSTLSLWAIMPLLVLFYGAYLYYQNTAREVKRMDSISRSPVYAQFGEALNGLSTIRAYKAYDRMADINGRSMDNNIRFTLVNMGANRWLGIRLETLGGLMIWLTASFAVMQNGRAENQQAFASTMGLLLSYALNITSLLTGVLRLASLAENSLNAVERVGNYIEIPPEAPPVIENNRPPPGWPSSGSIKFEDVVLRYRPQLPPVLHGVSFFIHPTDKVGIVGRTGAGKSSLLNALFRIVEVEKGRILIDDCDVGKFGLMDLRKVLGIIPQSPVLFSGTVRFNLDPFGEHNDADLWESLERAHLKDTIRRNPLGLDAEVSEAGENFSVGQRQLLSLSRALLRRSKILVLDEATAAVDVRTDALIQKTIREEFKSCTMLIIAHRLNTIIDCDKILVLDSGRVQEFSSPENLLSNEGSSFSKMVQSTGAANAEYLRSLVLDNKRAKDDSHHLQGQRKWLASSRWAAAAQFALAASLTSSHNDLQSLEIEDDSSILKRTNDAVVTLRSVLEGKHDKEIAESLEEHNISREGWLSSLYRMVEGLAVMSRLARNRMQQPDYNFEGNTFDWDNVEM
Description: as §1
Membranes from DTY168/pYES3-AtMRP2 cells were incubated for 10 minutes in standard uptake medium containing 61.3 μM [^3 H]DNP-GS after which time 200 mM glucose and 50 units/ml hexokinase (Type F-300 from baker's yeast) were added. […] Control samples were treated identically except that no additions were made after the initial 10 minute incubation period.

[1] = target: T3, YCF1 (vacuolar membrane vesicles purified from DTY165 cells) (Saccharomyces cerevisiae, UniProt P39109); assay: [3H]DNP-GS uptake by vacuolar membrane vesicles purified from DTY165 cells; assay type: biochemical
T3 construct: endogenous in cells; host or cells: S. cerevisiae DTY165 (wild type YCF1), vacuolar membrane vesicles
T3 sequence (P39109 whole entry): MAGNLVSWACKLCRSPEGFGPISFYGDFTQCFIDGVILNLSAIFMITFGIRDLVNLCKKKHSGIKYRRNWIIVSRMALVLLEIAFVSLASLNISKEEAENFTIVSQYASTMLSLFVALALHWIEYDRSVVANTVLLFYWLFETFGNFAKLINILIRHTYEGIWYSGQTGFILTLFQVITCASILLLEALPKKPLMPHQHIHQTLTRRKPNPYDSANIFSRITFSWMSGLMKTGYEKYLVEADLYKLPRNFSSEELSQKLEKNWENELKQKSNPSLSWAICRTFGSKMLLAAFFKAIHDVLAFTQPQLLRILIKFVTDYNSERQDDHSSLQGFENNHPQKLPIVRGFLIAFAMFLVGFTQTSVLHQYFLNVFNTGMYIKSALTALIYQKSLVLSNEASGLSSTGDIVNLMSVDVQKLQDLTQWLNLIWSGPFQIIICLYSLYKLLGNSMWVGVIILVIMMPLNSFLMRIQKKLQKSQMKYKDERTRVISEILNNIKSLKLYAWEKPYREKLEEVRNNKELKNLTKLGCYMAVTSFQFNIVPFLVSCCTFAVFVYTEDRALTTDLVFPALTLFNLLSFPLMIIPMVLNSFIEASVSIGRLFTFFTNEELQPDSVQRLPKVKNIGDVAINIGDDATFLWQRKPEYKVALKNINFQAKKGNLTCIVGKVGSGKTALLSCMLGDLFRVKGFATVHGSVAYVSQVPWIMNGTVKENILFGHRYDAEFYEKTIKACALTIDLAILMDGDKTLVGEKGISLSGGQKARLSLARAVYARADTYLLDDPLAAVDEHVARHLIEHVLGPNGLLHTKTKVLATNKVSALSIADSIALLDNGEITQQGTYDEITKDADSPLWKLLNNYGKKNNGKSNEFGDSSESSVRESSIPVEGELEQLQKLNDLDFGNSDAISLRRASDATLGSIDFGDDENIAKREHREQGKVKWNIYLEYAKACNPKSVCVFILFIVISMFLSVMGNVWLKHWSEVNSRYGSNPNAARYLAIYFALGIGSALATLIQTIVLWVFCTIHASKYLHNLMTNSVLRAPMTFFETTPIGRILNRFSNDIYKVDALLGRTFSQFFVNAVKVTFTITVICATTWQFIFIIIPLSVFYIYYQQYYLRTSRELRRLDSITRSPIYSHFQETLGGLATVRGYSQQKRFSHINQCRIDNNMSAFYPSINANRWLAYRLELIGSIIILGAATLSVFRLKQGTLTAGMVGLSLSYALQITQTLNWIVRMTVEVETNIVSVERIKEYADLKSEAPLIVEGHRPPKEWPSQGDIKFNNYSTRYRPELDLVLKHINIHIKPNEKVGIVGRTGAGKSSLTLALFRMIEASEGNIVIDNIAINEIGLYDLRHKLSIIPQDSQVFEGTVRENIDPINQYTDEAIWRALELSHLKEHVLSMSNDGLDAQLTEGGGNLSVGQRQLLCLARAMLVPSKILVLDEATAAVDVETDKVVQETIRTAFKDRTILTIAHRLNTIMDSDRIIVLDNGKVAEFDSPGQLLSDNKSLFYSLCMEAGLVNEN
Description: (§2) For the routine preparation of vacuolar membrane vesicles, 15 ml of stationary phase cultures of DTY165 or DTY167 were diluted into 1-liter volumes of fresh YPD medium, grown for 24 hours at 30° C. to an OD600 nm of approximately 0.8 and collected by centrifugation. After washing with distilled water, the cells were converted to spheroplasts with Zymolyase 20T (ICN) (Kim et al., 1994, supra) and intact vacuoles were isolated by flotation centrifugation of spheroplast lysates on Ficoll 400 step gradients as described by Roberts et al. (1991, Methods. Enzymol. 194:644-661). Both the spheroplast lysis buffer and Ficoll gradients contained 2 mg/ml bovine serum albumin, 1 μg/ml aprotinin, 1 μg/ml leupeptin, 1 μg/ml pepstatin, and 1 mM PMSF to minimize proteolysis. The resulting vacuole fraction was vesiculated in 5 mM MgCl2, 25 mM KCl, 10 mM Tris-Mes (pH 6.9) containing 2 mg/ml bovine serum albumin, 1 μg/ml aprotinin, 1 μg/ml leupeptin, 1 μg/ml pepstatin, and 1 mM PMSF, pelleted by centrifugation at 37,000× g for 25 min, and resuspended in suspension medium (1.1 M glycerol, 2 mM dithiothreitol, 1 mM Tris-EGTA, 2 mg/ml bovine serum albumin, 1 μg/ml aprotinin, 1 μg/ml leupeptin, 1 μg/ml pepstatin, 1 mM PMSF, 5 mM Tris-Mes, pH 7.6) (Kim et al., 1995, J. Biol. Chem. 270:2630-2635).
(§3) Unless otherwise indicated, [^3 H]DNP-GS uptake was measured at 25° C. in 200 μl reaction volumes containing 3 mM ATP, 3 mM MgSO4, 5 μM gramicidin-D, 10 mM creatine phosphate, 16 units/ml creatine kinase, 50 mM KC 1, 1 mg/ml bovine serum albumin, 400 mM sorbitol, 25 mM Tris-Mes (pH 8.0), and 66.2 μM [^3 H]DNP-GS (8.7 mCi/mmol) (Li et al., 1995, supra). […] Uptake was initiated by the addition of vacuolar membrane vesicles (10-15 μg of membrane protein), brief mixing of the samples on a vortex mixer and uptake was then allowed to proceed for 1-60 minutes. Uptake was terminated by the addition of 1 ml of ice-cold wash medium (400 mM sorbitol, 3 mM Tris-Mes, pH 8.0) and vacuum filtration of the suspension through prewetted Millipore HA cellulose nitrate membrane filters (pore diameter, 0.45 μm). The filters were rinsed twice with 1 ml of ice-cold wash medium and air-dried, and radioactivity was determined by liquid scintillation counting in BCS mixture (Amersham Corp.). Nonenergized [^3 H]DNP-GS uptake and extravesicular solution trapped on the filters were enumerated by the same procedure except that ATP and Mg^2 +were omitted from the uptake medium.

[2] = tested on: vacuolar membrane vesicles purified from DTY167 cells (ycf1Δ mutant); assay type: biochemical, Saccharomyces cerevisiae
Description: as §2, §3

[3] = target: T3, YCF1 (vacuolar membrane vesicles purified from DTY165 cells); assay: biochemical; assay type: biochemical
Description: (§4) In experiments involving cadmium transport, dithiothreitol and EGTA were removed from the suspension medium to prevent the attenuation of YCF1-dependent Cd^2+ transport otherwise exerted by these compounds. Vesiculated vacuolar membranes were subjected to three cycles of 50-fold dilution into simplified suspension medium (1.1 M glycerol, 5 mM Tris-Mes, pH 8.0), centrifugation at 100,000× g for 35 minutes and resuspension in the same medium before use.
(§5) Singly radiolabeled ^109 Cd.GSn and doubly radio-labeled ^109 Cd[^3 H].GS^n complexes were prepared by sequential gel-filtrationand anion-exchange chromatography of the reaction products generated by incubating 20 mM ^109 CdSO4 (78.4 mCi/mmol) with 40 mM GSH or 40 mM [^3 H]GSH (240 mCi/mmol) in 15 ml 10 mM phosphate buffer (pH 8.0) containing 150 mM KNO3 at 45° C. for 24 hours. For gel-filtration, 2 ml aliquots of the reaction mixture were applied to a column (40×1.5 cm ID) packed with water-equilibrated Sephadex G-1 5, eluted with deionized water and ^109 Cd and/or ^3 H in the fractions was measured by liquid scintillation counting. The fractions encompassed by each of the two ^109 Cd.GSn peaks identified were pooled, lyophilized and redissolved in 4 ml of loading buffer (5 mM Tris-Mes, pH 8.0). For anion-exchange chromatography, 0.5 ml aliquots of the resuspended lyophilizates from gel-filtration chromatography were applied to a Mono-Q HR5/5 column (Pharmacia) equilibrated with the same buffer. Elution was with a linear gradient of NaCl (0.5 ml/minute; 0-500 mM) dissolved in loading buffer. The individual fractions corresponding to the major peaks of ^109 Cd obtained from the Mono-Q column (one each for the peaks resolved by gel-filtration chromatography) were pooled, lyophilized and resuspended in 4 ml deionized water after liquid scintillation counting.
(§6) MgATP-energized, uncoupler-insensitive ^109 Cd^2+ uptake by vacuolar membrane vesicles was measured at 25° C. in 200 μl reaction volumes containing 3 mM ATP, 3 mM MgSO4, 5 μM gramicidin-D, 10 mM creatine phosphate, 16 units/ml creatine kinase, 50 mM KCl, 400 mM sorbitol, 25 mM Tris-Mes (pH 8.0) and the indicated concentrations of ^109 CdSO4, GSH or ^109 Cd- and/or ^3 H-labeled purified Cd.GSn complexes as described herein except that the wash media contained 100 μM CdSO4 in addition to sorbitol (400 mM) and Tris-Mes (3 mM, pH 8.0).

[4] = tested on: vacuolar GS-X pump (vacuolar membrane vesicles, V. radiata hypocotyls); assay: GS-conjugate uptake by vacuolar membrane vesicles from etiolated hypocotyls of V. radiata; assay type: biochemical, Vigna radiata
Description: Values shown are means ±SE (n=3).
Vacuolar membrane vesicles were purified from etiolated hypocotyls of V. radiata cv.
Unless otherwise indicated, [^3 H]medicarpin or [3H]medicarpin-GS uptake was measured at 25° C. in 200 μl reaction volumes containing 3 mM ATP, 3 mM MgSO4, 10 mM creatine phosphate, 16 U/ml creatine kinase, 50 mM KCl, 0.1% (w/v) BSA, 400 mM sorbitol and 25 mM Tris-Mes buffer, pH 8.0. Uptake was initiated by the addition of 12 μl membrane vesicles (30-40 μg protein) and brief mixing of the samples on a vortex mixer. Uptake was terminated by the addition of 1 ml ice-cold wash medium (400 mM sorbitol, 3 mM Tris-Mes, pH 8.0) and vacuum filtration of the suspension through prewetted HA cellulose nitrate filters (pore diameter 0.45 μm). The filters were rinsed twice with a 1 ml ice-cold wash medium, air-dried and radioactivity was determined by liquid scintillation counting.

[5] = tested on: vacuolar membrane vesicles purified from DTY167 cells (ycf1Δ mutant); assay type: biochemical, Saccharomyces cerevisiae; remark: listed apart in the source
Description: as §4, §5, §6

[6] = MgATP-dependent, uncoupler-insensitive
[7] = 66.2 μM DNP-GS, 3 mM MgATP (omitted with MgAMP-PNP), MgAMP-PNP 3 mM, bafilomycin A1 0.5 μM, FCCP 5 μM, gramicidin D 5 μM, NH4Cl 1 mM
[8] = as Table 1 concentrations, 10 min
[9] = 50 μM 109Cd.GS2, bafilomycin A1 0.5 μM, FCCP 5 μM, gramicidin-D 5 μM, NH4Cl 1 mM
[10] = as Table 7 concentrations, 10 min
[11] = gramicidin-D 5 μM, vanadate 10 μM, DNP-GS 100 μM

T1 sequence (Q9C8G9 whole entry): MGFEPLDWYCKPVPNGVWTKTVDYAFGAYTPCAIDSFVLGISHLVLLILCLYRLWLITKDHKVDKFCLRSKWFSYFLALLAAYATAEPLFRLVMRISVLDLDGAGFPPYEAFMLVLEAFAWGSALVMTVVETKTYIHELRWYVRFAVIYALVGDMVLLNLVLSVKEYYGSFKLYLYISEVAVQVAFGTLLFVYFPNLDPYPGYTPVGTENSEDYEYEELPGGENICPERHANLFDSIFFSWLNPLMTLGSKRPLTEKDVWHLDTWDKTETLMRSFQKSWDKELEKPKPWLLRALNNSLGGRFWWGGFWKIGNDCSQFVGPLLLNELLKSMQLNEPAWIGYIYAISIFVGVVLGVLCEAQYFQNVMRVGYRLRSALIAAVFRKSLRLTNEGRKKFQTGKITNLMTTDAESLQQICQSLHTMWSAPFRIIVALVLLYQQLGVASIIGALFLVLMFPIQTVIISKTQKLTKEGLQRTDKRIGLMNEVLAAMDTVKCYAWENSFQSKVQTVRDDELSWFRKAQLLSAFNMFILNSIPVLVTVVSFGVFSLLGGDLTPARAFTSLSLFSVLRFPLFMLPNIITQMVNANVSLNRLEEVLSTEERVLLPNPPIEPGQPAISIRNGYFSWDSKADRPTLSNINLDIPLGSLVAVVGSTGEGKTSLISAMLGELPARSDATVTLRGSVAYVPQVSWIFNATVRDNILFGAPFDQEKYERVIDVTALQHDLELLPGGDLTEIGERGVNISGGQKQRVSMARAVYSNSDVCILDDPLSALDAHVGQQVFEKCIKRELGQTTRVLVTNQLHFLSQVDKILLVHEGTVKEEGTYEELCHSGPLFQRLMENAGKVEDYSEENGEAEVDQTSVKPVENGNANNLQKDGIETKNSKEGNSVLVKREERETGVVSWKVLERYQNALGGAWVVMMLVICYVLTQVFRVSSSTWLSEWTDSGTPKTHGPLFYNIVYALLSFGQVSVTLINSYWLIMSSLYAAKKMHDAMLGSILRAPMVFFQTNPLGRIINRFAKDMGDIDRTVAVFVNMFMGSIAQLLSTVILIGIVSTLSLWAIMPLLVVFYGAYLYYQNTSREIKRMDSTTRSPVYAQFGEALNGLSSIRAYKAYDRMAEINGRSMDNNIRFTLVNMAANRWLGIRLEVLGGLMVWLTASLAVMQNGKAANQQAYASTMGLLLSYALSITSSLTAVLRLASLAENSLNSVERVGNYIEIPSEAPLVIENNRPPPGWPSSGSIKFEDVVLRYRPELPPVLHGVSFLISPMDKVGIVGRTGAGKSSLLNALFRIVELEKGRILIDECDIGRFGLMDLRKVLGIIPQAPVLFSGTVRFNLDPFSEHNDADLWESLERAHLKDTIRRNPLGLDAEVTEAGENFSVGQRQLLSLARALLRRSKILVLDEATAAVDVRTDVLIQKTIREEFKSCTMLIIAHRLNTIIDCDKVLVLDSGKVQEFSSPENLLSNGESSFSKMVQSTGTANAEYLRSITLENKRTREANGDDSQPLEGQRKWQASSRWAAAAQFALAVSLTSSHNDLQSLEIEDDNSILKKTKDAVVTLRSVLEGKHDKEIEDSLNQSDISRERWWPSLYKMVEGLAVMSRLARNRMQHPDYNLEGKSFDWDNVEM

Molecule: C=CC1=C(C)C(Cc2[nH]c(C3c4[nH]c(Cc5[nH]c(C=O)c(C)c5CCOC(=O)CC(=O)O)c(C)c4C(=O)C3C(=O)O)c(CCC(=O)O)c2C)NC1=O (stereo not drawn) [Bn-NCC-1]
- Km for AtMRP1-dependent uptake (AtMRP1; [6]): Linear
- Km (AtMRP2; [6]): 15.2 µM and 15 µM
- Vmax for AtMRP2-dependent uptake (AtMRP2; [6]): 63.1 ± 2.5 nmol/mg/10 min

Molecule: OC[C@H]1O[C@@H](Oc2cc3c(O)cc(O)cc3[o+]c2-c2ccc(O)c(O)c2)[C@H](O)[C@@H](O)[C@@H]1O [C3G, cyanidin-3-glucoside]
- MgATP-dependent, uncoupler-insensitive uptake of unconjugated precursor detectable (AtMRP1): In no case
- MgATP-dependent, uncoupler-insensitive uptake of unconjugated precursor detectable (AtMRP2): In no case

Molecule: O=[N+]([O-])c1ccc(Cl)c([N+](=O)[O-])c1 [DNP]
- MgATP-dependent, uncoupler-insensitive uptake of unconjugated precursor detectable (AtMRP1): In no case
- MgATP-dependent, uncoupler-insensitive uptake of unconjugated precursor detectable (AtMRP2): In no case

Molecule: N[C@@H](CCC(=O)N[C@@H](CS)C(=O)NCC(=O)O)C(=O)O [GSH, glutathione]
- MgATP-dependent, uncoupler-insensitive DNP-GS uptake plus compound [1]: 50.6 ± 2.3 nmol/mg/10 minutes
- MgATP-dependent, uncoupler-insensitive DNP-GS uptake as percentage of control ([1]; dty165 vacuolar membrane vesicles, 10 min): 105.6
- MgATP-dependent, uncoupler-insensitive DNP-GS uptake plus compound [2]: 4.6 ± 1.1 nmol/mg/10 minutes
- MgATP-dependent, uncoupler-insensitive DNP-GS uptake as percentage of control ([2]; dty167 vacuolar membrane vesicles, 10 min): 70.8
- t1/2 of GSH stimulation of Cd2+ uptake [3]: < 5 min
- MgATP-dependent, uncoupler-insensitive uptake of unconjugated precursor detectable (AtMRP1): In no case
- MgATP-dependent, uncoupler-insensitive uptake of unconjugated precursor detectable (AtMRP2): In no case

Molecule: COc1ccc2c(c1)OC1c3ccc(O)cc3OCC21 (stereo not drawn) [medicarpin]
- uptake in the presence of MgATP ([4]; 65 μM, 3 mM MgATP): 16.7±3.6 nmol/mg/20 minutes
- uptake in the absence of MgATP ([4]; 65 μM, -MgATP): 7.4±1.3 nmol/mg/20 minutes

Molecule: CCc1cccc(C)c1N(C(=O)CCl)C(C)COC (stereo not drawn) [metolachlor]
- MgATP-dependent, uncoupler-insensitive uptake of unconjugated precursor detectable (AtMRP1): In no case
- MgATP-dependent, uncoupler-insensitive uptake of unconjugated precursor detectable (AtMRP2): In no case

Molecule: Gramicidin D
- DNP-GS uptake plus the compound indicated [1, 7]: 45.8 ± 1.4 nmol/mg/10 minutes
- DNP-GS uptake as percentage of control plus the compound indicated [1, 8]: 58.9%
- DNP-GS uptake plus the compound indicated [2, 7]: 5.8 ± 0.1 nmol/mg/10 minutes
- DNP-GS uptake as percentage of control plus the compound indicated [2, 8]: 37.7%
- 109Cd.GS2 uptake plus addition [3, 9]: 77.8 ± 6.4 nmol/mg/10 minutes
- 109Cd.GS2 uptake as percentage of control [3, 10]: 73.5%
- decrease of MgATP-dependent Cd.GS2 uptake ([3]; text to Table 7): 22%
- 109Cd.GS2 uptake plus addition [5, 9]: 9.3 ± 2.0 nmol/mg/10 minutes
- 109Cd.GS2 uptake as percentage of control [5, 10]: 56.6%
- [3H]Medicarpin-GS uptake with treatment, +MgATP ([4]; 65 μM medicarpin-GS, 3 mM MgATP, gramicidin-D 5 μM, vanadate 10 μM, DNP-GS 100 μM): 71.2 ± 3.0 nmol/mg/10 minutes
- [3H]Medicarpin-GS uptake with treatment, -MgATP ([4]; 65 μM medicarpin-GS, gramicidin-D 5 μM, vanadate 10 μM, DNP-GS 100 μM): 13.2 ± 2.1 nmol/mg/10 minutes
- [3H]Medicarpin-GS uptake as percentage of control, +MgATP [4, 11]: 83.2%
- [3H]Medicarpin-GS uptake as percentage of control, -MgATP [4, 11]: 79.0%
- inhibition of MgATP-dependent [3H]medicarpin-GS uptake ([4]; vanadate 10 μM, DNP-GS 100 μM, gramicidin D): 17%

Molecule: Triton X-100
- release (efflux) of accumulated [3H]DNP-GS after hexokinase trap (AtMRP2): more than 3 fold

Source: patent US6166290A, “Glutathione-S-conjugate transport in plants” (The Trustees of the University of Pennsylvania, priority 1997, dated 2000)
